The values below come from ChEMBL document CHEMBL1201862, “PubChem BioAssay data set” (2004).

Test systems include SK-MEL-28; OVCAR-5; ACHN; HCT-15; RPMI-8226; UACC-62; M14; Malme-3M; HCC 2998; MCF7; NCI-H460; NCI-H23; A549; OVCAR-8; IGROV-1; MOLT-4; SW-620; NCI-H522; SK-MEL-2; SR.
Holding throughout (test): growth of human tumour cells (NCI), 48 h

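Five concentrations, 48 hours, 96-well plates. At the GI50, growth is halved.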 Calls of active or inactive are those of the source. No stated cut-off is given here; in the data, active = GI50 up to about 1.1 µM and inactive = higher. Where only a bound is given, the exact number is not on record here.

Regarding `COc1cc(N(CCC#N)CCC#N)ccc1C(/N=N/c1cccc([N+](=O)[O-])c1)=N\NC(=O)c1ccc(C)cc1`, the GI50 in the test with SK-MEL-28 is > 100 µM (inactive); in the test with OVCAR-5, > 100 µM (inactive); with ACHN it was > 100 µM (inactive); with HCT-15, 80.2 µM; in the test with RPMI-8226, 18.6 µM (inactive); with UACC-62, > 100 µM (inactive). Moreover, the GI50 was > 100 µM (inactive) in the test on M14; > 100 µM (inactive) in the test on Malme-3M; 26 µM (inactive) with HCC 2998; 45 µM (inactive) in the test on MCF7; 24.3 µM (inactive) in the test on NCI-H460; 37.1 µM (inactive) in the test with NCI-H23. Also, the GI50 in the test with A549 is > 100 µM (inactive); in the test on OVCAR-8, 89.5 µM (inactive); with IGROV-1, > 100 µM (inactive); with MOLT-4, 16.9 µM (inactive); with SW-620, > 100 µM (inactive); in the test on NCI-H522, 26.5 µM (inactive). For the same molecule, the GI50 in the test on SK-MEL-2 is > 100 µM (inactive).
Turning to `Cc1cc(N(CCC#N)CCC#N)ccc1C(/N=N/c1ccc([N+](=O)[O-])cc1)=N\NC(=O)c1cc(Cl)ccc1C(=O)c1ccccc1`, the GI50 in the test on SK-MEL-28 is 20.2 µM (inactive); in the test on OVCAR-5 it was 26.1 µM (inactive); with ACHN, 12.2 µM (inactive); in the test with HCT-15, 4.8 µM; with RPMI-8226, 11 µM (inactive); in the test with UACC-62 it was 11.1 µM (inactive). The GI50 is 17.5 µM (inactive) in the test on M14; 13.2 µM (inactive) in the test with Malme-3M; 13 µM (inactive) with HCC 2998; 4.95 µM (inactive) with MCF7; 6.1 µM (inactive) with NCI-H460; 13.3 µM (inactive) in the test with NCI-H23. Further, the GI50 in the test on A549 was 15 µM (inactive); with OVCAR-8, 6.21 µM (inactive); in the test with IGROV-1, 3.56 µM (inactive); in the test with MOLT-4, 4.65 µM (inactive); in the test on SW-620 it was 8.65 µM (inactive); with NCI-H522, 1.87 µM (inactive). Further, the GI50 in the test with SK-MEL-2 is 11.1 µM (inactive).
As for `N=C(/C=C/c1ccc(-c2cn3cc(/C=C/C(=N)N4CCOCC4)ccc3n2)cc1)N1CCOCC1`, the GI50 in the test on SK-MEL-28 was > 100 µM (inactive); with OVCAR-5, > 100 µM (inactive); in the test with ACHN it was > 100 µM (inactive); in the test on HCT-15 it was over 100 µM; with RPMI-8226 it was 76.4 µM (inactive); in the test with UACC-62, > 100 µM (inactive). The GI50 in the test with M14 is > 100 µM (inactive); in the test with Malme-3M it was > 100 µM (inactive); in the test with HCC 2998, > 100 µM (inactive); in the test with MCF7 it was 94 µM (inactive); in the test on NCI-H460, > 100 µM (inactive); in the test on NCI-H23, > 100 µM (inactive). Moreover, the GI50 was > 100 µM (inactive) in the test on A549; > 100 µM (inactive) with OVCAR-8; > 100 µM (inactive) in the test on IGROV-1; > 100 µM (inactive) in the test with SW-620; 62.8 µM (inactive) in the test with NCI-H522; > 100 µM (inactive) with SK-MEL-2.
Turning to `CC1=NN(c2nc(N)nc(CSc3cc(Cl)c(C)cc3S(N)(=O)=O)n2)C(C)(C)C1`, the GI50 was > 10 µM (inactive) in the test with SK-MEL-28; > 10 µM (inactive) in the test with OVCAR-5; > 10 µM (inactive) in the test with ACHN; over 10 µM with HCT-15; > 10 µM (inactive) with RPMI-8226; > 10 µM (inactive) in the test with UACC-62. Besides, the GI50 with M14, in the test on Malme-3M, in the test on HCC 2998, with MCF7, in the test with NCI-H460 and with NCI-H23 was > 10 µM (inactive) each time. Besides, the GI50 in the test with A549, in the test on OVCAR-8, in the test with IGROV-1, with MOLT-4, in the test with SW-620 and in the test with NCI-H522 was > 10 µM (inactive) throughout. The GI50 in the test on SK-MEL-2 is > 10 µM (inactive).
With `O=C(NNCC(O)COc1ccccc1)c1ccccc1` (configuration not stated), the GI50 in the test with SK-MEL-28 was > 100 µM (inactive); with OVCAR-5, > 100 µM (inactive); in the test with ACHN, > 100 µM (inactive); with HCT-15, over 100 µM; in the test on RPMI-8226 it was > 100 µM (inactive); in the test with UACC-62, > 100 µM (inactive). Moreover, the GI50 in the test with M14, in the test with Malme-3M, with HCC 2998, in the test with MCF7, in the test on NCI-H23 and with A549 was > 100 µM (inactive) in each case. Also, the GI50 in the test with OVCAR-8, in the test on IGROV-1, with MOLT-4, with SW-620, with NCI-H522 and with SK-MEL-2 was > 100 µM (inactive) throughout.
Regarding `Cc1cc2ccccc2c[n+]1CC(=O)CC([O-])(C(F)(F)F)C(F)(F)F`, the GI50 in the test with SK-MEL-28 was > 100 µM (inactive); in the test on OVCAR-5, > 100 µM (inactive); in the test on ACHN it was > 100 µM (inactive); with HCT-15, over 100 µM; in the test on RPMI-8226, 69.7 µM (inactive); in the test on UACC-62 it was > 100 µM (inactive). The GI50 in the test with M14 was > 100 µM (inactive); in the test with Malme-3M, > 100 µM (inactive); in the test on HCC 2998, > 100 µM (inactive); in the test with NCI-H460 it was > 100 µM (inactive); with NCI-H23 it was 87.5 µM (inactive); with A549, > 100 µM (inactive). Besides, the GI50 is > 100 µM (inactive) in the test with OVCAR-8; 41.3 µM (inactive) with IGROV-1; 79.8 µM (inactive) in the test with MOLT-4; > 100 µM (inactive) in the test on SW-620; > 100 µM (inactive) in the test on SR; 85.1 µM (inactive) in the test with NCI-H522. Moreover, in the test on SK-MEL-2, the GI50 is > 100 µM (inactive).
In the case of `CCCCCCCCCC(=O)CC(=O)c1c(O)cc(O)cc1O`, the GI50 with SK-MEL-28 was 23.3 µM (inactive); with OVCAR-5, 19.4 µM (inactive); in the test with ACHN, 27 µM (inactive); in the test with HCT-15, 18.2 µM; in the test on RPMI-8226, 16.1 µM (inactive); with M14, 17.1 µM (inactive). The GI50 is 14.4 µM (inactive) with Malme-3M; 18.8 µM (inactive) in the test on HCC 2998; 39.1 µM (inactive) in the test with MCF7; 17.3 µM (inactive) in the test with NCI-H23; 25.6 µM (inactive) in the test on A549; 17.3 µM (inactive) in the test with OVCAR-8. For the same molecule, the GI50 was 26.5 µM (inactive) in the test with IGROV-1; 12.9 µM (inactive) in the test with MOLT-4; 25.6 µM (inactive) with SW-620; 20.2 µM (inactive) in the test on NCI-H522; 17.7 µM (inactive) in the test with SK-MEL-2.
As to `CCCNc1ncnc2c1ncn2C`, the GI50 in the test on SK-MEL-28 was > 100 µM (inactive); in the test with ACHN, 51.6 µM (inactive); with HCT-15 it was 86.9 µM; in the test on RPMI-8226, 20.6 µM (inactive); in the test on UACC-62 it was 45.1 µM (inactive); in the test on M14, 58.5 µM (inactive). The GI50 was 45.3 µM (inactive) in the test with Malme-3M; 78.7 µM (inactive) in the test on HCC 2998; 53.6 µM (inactive) in the test on MCF7; 35.6 µM (inactive) in the test with NCI-H23; > 100 µM (inactive) in the test on A549; 48.5 µM (inactive) in the test on OVCAR-8. Besides, the GI50 in the test with IGROV-1 was 54.7 µM (inactive); in the test with MOLT-4 it was 45.3 µM (inactive); in the test with SW-620, 94.4 µM (inactive); in the test with NCI-H522, 41.8 µM (inactive); in the test with SK-MEL-2, > 100 µM (inactive).
In the case of `N#Cc1nc(Nc2cccc3ccccc23)sc1N`, the GI50 with SK-MEL-28 was 37.9 µM (inactive); in the test on OVCAR-5 it was 68.9 µM (inactive); with ACHN, 25.1 µM (inactive); with HCT-15, 29.5 µM; in the test with RPMI-8226 it was 11.9 µM (inactive); in the test with UACC-62 it was 21.2 µM (inactive). For the same molecule, the GI50 is 39.9 µM (inactive) with M14; 26.2 µM (inactive) with Malme-3M; 20.3 µM (inactive) in the test with HCC 2998; 35 µM (inactive) in the test with NCI-H460; 14 µM (inactive) in the test with NCI-H23; 26.5 µM (inactive) with A549. In addition, the GI50 in the test with OVCAR-8 is 31.4 µM (inactive); with IGROV-1, 45.1 µM (inactive); in the test with MOLT-4 it was 11.5 µM (inactive); with SW-620, 41.2 µM (inactive); in the test with SR it was 3.05 µM (inactive); with NCI-H522, 15.9 µM (inactive). For the same molecule, in the test with SK-MEL-2, the GI50 was 28.5 µM (inactive).
Regarding `Cc1ccc(SC2C(C)(C)N(C(C)C)P2(=O)N(C(C)C)C(C)C)cc1` (configuration not stated), the GI50 with SK-MEL-28 was > 95.7 µM (inactive); with OVCAR-5, > 100 µM (inactive); in the test on ACHN, 15.8 µM (inactive); with HCT-15, 62.8 µM; with RPMI-8226 it was 9.35 µM (inactive); with UACC-62, 42.1 µM (inactive). The GI50 was 71.4 µM (inactive) in the test on M14; > 32.3 µM (inactive) with Malme-3M; 64.3 µM (inactive) in the test with HCC 2998; 27.5 µM (inactive) in the test on NCI-H460; 26.7 µM (inactive) in the test on NCI-H23; > 45 µM (inactive) in the test on A549. The GI50 with OVCAR-8 was 45.5 µM (inactive); in the test with IGROV-1, > 86.3 µM (inactive); in the test with MOLT-4, 30.2 µM (inactive); in the test with SW-620, > 25.5 µM (inactive); in the test with SR it was 14.2 µM (inactive); with NCI-H522, 20.5 µM (inactive). In addition, in the test on SK-MEL-2, the GI50 was 67 µM (inactive).
In the case of `Nc1c(S(N)(=O)=O)cc(S(N)(=O)=O)cc1S(N)(=O)=O`, the GI50 in the test on SK-MEL-28 is > 100 µM (inactive); with OVCAR-5, > 100 µM (inactive); in the test with ACHN it was > 100 µM (inactive); in the test on HCT-15 it was over 100 µM; with RPMI-8226, > 100 µM (inactive); with UACC-62, > 100 µM (inactive). The GI50 in the test with M14, in the test on Malme-3M, in the test on HCC 2998, in the test on MCF7, in the test on NCI-H460 and with NCI-H23 was > 100 µM (inactive) in each case. The GI50 with A549, in the test with OVCAR-8, in the test on IGROV-1, in the test on MOLT-4, with SW-620 and with NCI-H522 was > 100 µM (inactive) in each case.
